Results as given in patent publication US9700578B2, “Use of nitrite salts for the treatment of cardiovascular conditions” (The United States of America as represented by the …, priority 2003, dated 2017).
Values joined by “and” are separate entries in the source; they are usually repeats but may differ in a detail not shown here. Equal values may be shown once. Read-outs that look alike come from different tables or passages of the source.

Key:
[1] = system: myocardial ischemia-reperfusion injury
Description: Briefly, mice were anesthetized with intraperitoneal injections of ketamine (50 mg/kg) and pentobarbital sodium (50 mg/kg). The animals were then attached to a surgical board with their ventral side up. […] The mice were supplemented with 100% oxygen via the ventilator side port. A median sternotomy was performed using an electric cautery and the proximal left main coronary artery was visualized and completely ligated with 7-0 silk suture mounted on a tapered needle (BV-1 ethicon). In the initial experiments of myocardial infarct size coronary occlusion was maintained for 30-minutes followed by removal of suture and reperfusion for 24 hours. […] In these experiments, two-dimensional echocardiography was performed at baseline and again at 48 hours of reperfusion.
At 24 hours of reperfusion, the mice were anesthetized as described previously, intubated, and connected to a rodent ventilator. A catheter (PE-10 tubing) was placed in the common carotid artery to allow for Evans Blue dye injection. A median sternotomy was performed and the left main coronary artery was re-ligated in the same location as before Evans Blue dye (1.2 mL of a 2.0% solution, Sigma Chemical Co.) was injected into the carotid artery catheter into the heart to delineate the ischemic zone from the nonischemic zone. The heart was rapidly excised and serially sectioned along the long axis in five, 1 mm thick sections that were then incubated in 1.0% 2,3,5-triphenyltetrazolium chloride (Sigma Chemical Co.) for 5 minutes at 37° C. to demarcate the viable and nonviable myocardium within the risk zone.
Ventricular parameters were measured using leading-edge technique. M-mode (sweep speed=200 mm/sec) echocardiograms were captured from parasternal, short and long-axis 2D views of the left ventricle (LV) at the mid-papillary level. LV percent fractional shortening (FS) was calculated according to the following equation: LV % FS=((LVEDD−LVESD)/LVEDD)×100. All data were calculated from 10 cardiac cycles per experiment.

[2] = 48 nmoles of nitrite, n=3; before 594±83
deoxyhemoglobin = deoxyhemoglobin (Homo sapiens, UniProt P68871+P69905); settings: 25° C., pH 7.0; cited from earlier work
[3] = system: hypoxic-induced pulmonary hypertension; assay: Comparison of inhaled nitrite and NO gas during hypoxic-induced pulmonary vasoconstriction: efficacy and duration; assay type: in vivo, newborn lambs; settings: for reduction (correction) of hypoxic-induced pulmonary hypertension: hypoxia, NO gas 20 ppm or nitrite aerosol for 20 minutes
Source text: NO gas was introduced into the inspiratory limb of the breathing circuit. The inspired concentration of NO was continuously measured by chemiluminescence (CLD 700 AL, Eco Physics Inc, Ann Arbor, Mich.) in the inspiratory limb of the ventilator loop.
efficacy and duration of effect. This protocol was designed to compare the efficacy of nitrite with the clinical standard, 20 ppm inhaled NO gas. […] A second purpose was to determine the duration of effect of a short nitrite nebulization versus NO gas inhalation on hemodynamic and physiological measurements during prolonged hypoxic-induced pulmonary vasoconstriction. After baseline measurements were performed, the lambs were made hypoxic as described above for 35 minutes. Ten minutes after initiation of hypoxia, a 20-minute period of NO gas inhalation was initiated (20 ppm), with continuation of hypoxia for 5 minutes after cessation of NO gas delivery. Lambs were then allowed to recover for one hour. Again, after baseline measurements were made, a second 90-minute period of hypoxia was initiated.

[4] = system: hypoxic-induced pulmonary hypertension; settings: for decrease in pulmonary artery pressure from hypoxic level: FiO2 0.12, nebulized 270 μmol/minute for 20 minutes, n=7
[5] = system: right middle cerebral artery vasospasm
Description: An autologous arterial blood clot was placed around the right middle cerebral artery (R MCA) of 14 anesthetized Cynomolgus monkeys at day 0. […] Cerebral arteriogram was performed before clot placement and on days 7 and 14, for assessment of DCV. Arteriographic vasospasm was defined as a 25% or greater reduction in the proximal 14 mm of the R MCA area as measured on the AP projection of the cerebral arteriogram (blinded assessment). Mean arterial blood pressure was measured and blood samples were collected daily from day 0; the cerebral spinal fluid samples were collected on day 0, 7, and 14.

hemoglobin = hemoglobin (Homo sapiens, UniProt P68871+P69905)
[6] = system: deoxygenated erythrocytes
forearm circulation = settings: concentrations of 200 μM in the forearm, Lauer et al.; cited from earlier work
[7] = 48 nmoles into left ventricular cavity 5 min prior to reperfusion, versus 48 nmoles nitrate
[8] = 45 minutes ischemia, 48 hours reperfusion
[9] = 200 μM regional concentration, transit time less than 10 seconds

O=NO [sodium nitrite]
reduction of myocardial infarct size per area-at-risk [1, 7]: 67% | reduction of myocardial infarct size per left ventricle [1, 7]: 67% | left ventricular fractional shortening versus vehicle group [1, 8]: significantly (p<0.02) greater | myocardial ejection fraction versus baseline [1, 8]: remained essentially unchanged | blood nitrite level after treatment [2]: 727 ± 40 nM | rate constant of nitrite reduction to NO and methemoglobin (deoxyhemoglobin): 2.9 M⁻¹ s⁻¹ | methemoglobin concentration after nitrite nebulization ([3]; baseline 2.1±0.1): 2.8±0.2% | duration of sustained vasodilation after discontinuation of inhalation ([3]; hypoxia continued 60 minutes after nebulization): more than 60 minutes | reduction (correction) of hypoxic-induced pulmonary hypertension [3]: about 60% | reduction (correction) of hypoxic-induced pulmonary hypertension ([3]; listed as nitrite): 60-70% | decrease in pulmonary artery pressure from hypoxic level [4]: ~60% | decrease in pulmonary artery pressure from hypoxic level ([4]; listed as nitrite): ~60% and 63+/−3% | cardiac output, arterial oxyhemoglobin saturation and methemoglobin levels ([4]; versus preceding ten minutes of hypoxia): did not change measurably | blood levels of nitrite ([5]; 45 mg/kg and 60 mg/kg per day): 10 to 60 µM | increases in blood methemoglobin concentrations ([5]; 45 mg/kg and 60 mg/kg per day): ≤ 2% | methemoglobin formation ([5]; 45 mg/kg and 60 mg/kg per day): < 5% | mean reduction in the R MCA area on day 7 after SAH ([5]; 45 mg/kg and 60 mg/kg per day i.v. for 14 days, saline 45±5): 8±9% | systemic hypotension ([5]; 14 days infusion): without systemic hypotension | toxicity ([5]; 14 days infusion): no clinical or pathological evidence of nitrite toxicity | development of significant vasospasm ([5]; nitrite infused animals, n=6): no animals developed significant vasospasm | iron-nitrosylated-hemoglobin in the ipsilateral antecubital vein during nitrite infusion (hemoglobin; 36 μmol/min, at rest, baseline 55.7±11.4): 693.4 ± 216.9 nM | SNO-Hb produced across the forearm during exercise (hemoglobin; [9]): ~200 nM | iron-nitrosyl-hemoglobin produced across the forearm during exercise (hemoglobin; [9]): approximately 750 nM | NO release on addition to oxygenated erythrocytes ([6]; 21% and 100% oxygen, versus deoxygenated erythrocytes): significantly less NO | rate of NO production in the 5 mL reaction volume ([6]; 100 and 200 μM nitrite, deoxygenated erythrocytes 660 and 1000 μM in heme, helium purged): 47 pM per second | NO release into the gas phase in buffer control ([6]; PBS, same conditions): no release | vasodilatory effect in human forearm (forearm circulation): no vasodilatory effects
